Experimental findings from EPA's ToxValDB 9.5 (doi:10.2903/j.efsa.2009.192r) are described below.

The subject of one data set is Folsomia candida. The following applies: chronic/long-term; duration: 28 days.
The next data set relates to Colinus virginianus. The following applies: acute, oral, mortality.
The test system of the next data set is Daphnia magna. The following applies: chronic/long-term; duration: 21 days; reproduction.
In a further data set the test system is Apis mellifera. The following applies: acute; duration: 48 hours; dermal; mortality.
In another data set the test system is Canidae. The following applies: oral, Dog Other, clinical signs.
The subject of another data set is Anas platyrhynchos. The following applies: for LD50: oral, mortality.

Converted amounts (≈) assume the structure as drawn. Some results are limits rather than exact numbers.

As usually defined, the NOAEL is the highest dose or exposure tested at which no adverse effect was seen. Consider `CCc1nn(C)c(C(=O)NCc2ccc(C(C)(C)C)cc2)c1Cl` [Tebufenpyrad], for which the NOEC in the data set with Folsomia candida came to 9.38 g/ha; in the data set with Daphnia magna it was 0.0024 mg/L; in the data set on Oncorhynchus mykiss (chronic/long-term, duration: 94 days) it was 0.00245 mg/L; in the data set on Tagia sp. (chronic/long-term) it was 0.66 mg/kg. In addition, the LD50 in the data set on Rattus norvegicus (acute, oral, M/F, Fischer 344, mortality) is 320 mg/kg-day; with Colinus virginianus (diet), above 439 mg/kg-day; in the data set on Colinus virginianus, above 2000 mg/kg-day; in the data set with Apis mellifera, above 6.7 µg/piece; in the data set with Anas platyrhynchos (acute, unspecified), above 2000 mg/kg-day; in the data set with Anas platyrhynchos (short-term, feed) it was above 75 mg/kg-day. The NOEL stood at 8.4 mg/kg-day with Rattus norvegicus (chronic, body weight) and 6.6 mg/kg-day with Anas platyrhynchos (reproductive). Moreover, the NOAEL turned out to be 0.8 mg/kg-day in the data set with Rattus norvegicus (chronic, duration: 2 years, oral, diet, organ weight); 15.3 mg/kg-day in the data set with Rattus norvegicus (reproduction developmental, reproduction); 0.7 mg/kg-day with Rattus norvegicus (subchronic, duration: 90 days, oral, organ weight); 2 mg/kg-day with Canidae (chronic, duration: 1 years); 2 mg/kg-day in the data set with Canidae (subchronic, duration: 90 days). The LC50 was found to be 0.03 mg/L (≈ 0.0899 µM) in the data set with Oncorhynchus mykiss (acute, duration: 96 hours, mortality) and 41 mg/kg in the data set on Tagia sp. (acute, duration: 14 days, mortality).
